# Reference: patent US9446039B2, “Aminoheteroaryl compounds as MTH1 inhibitors” (CEMM—FORSCHUNGSZENTRUM FÜR MOLEKULARE MEDIZIN GMBH, priority 2012, dated 2016)
# Legend:
# [1] = target: T1, SW480 colon carcinoma cells lysate proteins (Homo sapiens, UniProt P55209); type: binding; settings: PreyGene NAP1L1
# T1 sequence (P55209 1-391): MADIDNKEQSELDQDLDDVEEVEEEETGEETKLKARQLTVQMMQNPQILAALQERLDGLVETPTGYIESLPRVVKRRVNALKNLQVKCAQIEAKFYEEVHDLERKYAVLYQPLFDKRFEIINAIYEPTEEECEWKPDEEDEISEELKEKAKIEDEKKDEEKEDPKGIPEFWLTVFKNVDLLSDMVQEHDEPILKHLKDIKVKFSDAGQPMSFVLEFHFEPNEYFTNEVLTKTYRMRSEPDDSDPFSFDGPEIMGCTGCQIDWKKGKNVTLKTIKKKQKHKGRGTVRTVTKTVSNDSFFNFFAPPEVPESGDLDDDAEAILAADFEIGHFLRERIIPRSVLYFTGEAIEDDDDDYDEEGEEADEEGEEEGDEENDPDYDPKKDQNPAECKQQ
# [2] = target: T2, SW480 colon carcinoma cells lysate proteins (Homo sapiens, UniProt Q99497); type: binding; settings: PreyGene PARK7
# T2 sequence (Q99497 1-189): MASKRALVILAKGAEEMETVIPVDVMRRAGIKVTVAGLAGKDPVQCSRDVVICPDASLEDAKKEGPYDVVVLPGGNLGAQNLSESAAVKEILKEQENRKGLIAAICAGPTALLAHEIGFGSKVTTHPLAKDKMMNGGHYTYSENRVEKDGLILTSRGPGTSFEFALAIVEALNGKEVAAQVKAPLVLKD
# [3] = target: SW480 colon carcinoma cells lysate proteins (Homo sapiens, UniProt O43399); type: binding; settings: PreyGene TPD52L2
# Chain of SW480 colon carcinoma cells lysate proteins (Homo sapiens, UniProt O43399) (O43399 whole entry): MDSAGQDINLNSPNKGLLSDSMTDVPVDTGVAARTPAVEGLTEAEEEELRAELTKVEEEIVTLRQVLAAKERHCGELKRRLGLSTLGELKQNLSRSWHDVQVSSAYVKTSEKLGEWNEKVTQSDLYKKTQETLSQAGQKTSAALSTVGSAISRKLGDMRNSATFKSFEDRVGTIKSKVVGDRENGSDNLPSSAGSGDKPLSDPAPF
# [4] = target: SW480 colon carcinoma cells lysate proteins (Homo sapiens, UniProt P31939); type: binding; settings: PreyGene ATIC
# Chain of SW480 colon carcinoma cells lysate proteins (Homo sapiens, UniProt P31939) (P31939 whole entry): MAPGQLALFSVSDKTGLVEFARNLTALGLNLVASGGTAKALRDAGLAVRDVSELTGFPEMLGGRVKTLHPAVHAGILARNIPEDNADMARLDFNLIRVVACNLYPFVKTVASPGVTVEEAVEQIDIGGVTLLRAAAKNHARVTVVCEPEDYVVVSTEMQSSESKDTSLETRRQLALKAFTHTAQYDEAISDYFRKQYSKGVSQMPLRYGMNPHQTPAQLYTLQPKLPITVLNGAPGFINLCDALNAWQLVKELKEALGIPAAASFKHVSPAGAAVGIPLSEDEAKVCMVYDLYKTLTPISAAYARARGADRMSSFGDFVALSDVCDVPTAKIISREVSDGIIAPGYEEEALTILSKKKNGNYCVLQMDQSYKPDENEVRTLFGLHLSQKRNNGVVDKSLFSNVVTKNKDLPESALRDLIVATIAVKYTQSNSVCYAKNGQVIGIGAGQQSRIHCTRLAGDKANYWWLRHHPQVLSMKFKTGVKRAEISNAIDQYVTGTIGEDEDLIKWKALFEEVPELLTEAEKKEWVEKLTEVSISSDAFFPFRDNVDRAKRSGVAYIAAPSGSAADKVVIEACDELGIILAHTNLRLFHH
# [5] = target: T3, SW480 colon carcinoma cells lysate proteins (Homo sapiens, UniProt Q15785); type: binding; settings: PreyGene TOMM34
# T3 sequence (Q15785 1-309): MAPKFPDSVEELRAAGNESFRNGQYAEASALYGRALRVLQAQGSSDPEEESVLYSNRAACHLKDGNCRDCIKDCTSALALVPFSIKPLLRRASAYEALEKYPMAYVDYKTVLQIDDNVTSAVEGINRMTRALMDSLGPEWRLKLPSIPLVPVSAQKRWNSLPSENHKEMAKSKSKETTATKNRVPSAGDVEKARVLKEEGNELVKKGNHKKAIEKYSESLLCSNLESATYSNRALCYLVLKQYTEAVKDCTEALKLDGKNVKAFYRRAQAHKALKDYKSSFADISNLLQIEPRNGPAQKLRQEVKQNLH
# [6] = target: T4, SW480 colon carcinoma cells lysate proteins (Homo sapiens, UniProt Q07021); type: binding; settings: PreyGene C1QBP
# T4 sequence (Q07021 74-282): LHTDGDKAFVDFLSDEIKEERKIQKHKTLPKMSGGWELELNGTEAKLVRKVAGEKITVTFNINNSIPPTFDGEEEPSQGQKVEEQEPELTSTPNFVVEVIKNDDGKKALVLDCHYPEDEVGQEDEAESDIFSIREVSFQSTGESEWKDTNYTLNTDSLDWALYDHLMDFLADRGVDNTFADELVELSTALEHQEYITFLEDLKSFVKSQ
# [7] = target: T5, SW480 colon carcinoma cells lysate proteins (Homo sapiens, UniProt Q14847); type: binding; settings: PreyGene LASP1; SW480 cells
# T5 sequence (Q14847 1-261): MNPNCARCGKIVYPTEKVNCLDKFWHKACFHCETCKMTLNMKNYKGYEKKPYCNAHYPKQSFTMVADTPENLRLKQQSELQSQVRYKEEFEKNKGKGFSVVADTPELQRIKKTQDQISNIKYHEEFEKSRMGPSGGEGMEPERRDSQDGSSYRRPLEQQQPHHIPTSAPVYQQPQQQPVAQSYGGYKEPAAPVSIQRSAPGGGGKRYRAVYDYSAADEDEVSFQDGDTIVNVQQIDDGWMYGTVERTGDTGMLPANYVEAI
# [8] = target: SW480 colon carcinoma cells lysate proteins (Homo sapiens, UniProt P67809); type: binding; settings: PreyGene YBX1; SW480 cells
# Chain of SW480 colon carcinoma cells lysate proteins (Homo sapiens, UniProt P67809) (P67809 whole entry): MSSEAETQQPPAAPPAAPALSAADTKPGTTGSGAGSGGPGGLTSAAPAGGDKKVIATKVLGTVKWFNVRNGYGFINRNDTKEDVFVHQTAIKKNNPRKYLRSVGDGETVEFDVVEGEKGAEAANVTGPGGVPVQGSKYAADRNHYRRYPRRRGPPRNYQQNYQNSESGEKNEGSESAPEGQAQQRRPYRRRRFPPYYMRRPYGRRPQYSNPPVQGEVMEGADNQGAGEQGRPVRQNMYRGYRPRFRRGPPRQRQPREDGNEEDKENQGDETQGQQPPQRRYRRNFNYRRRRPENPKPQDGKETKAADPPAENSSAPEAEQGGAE
# [9] = tested on: SW480 colon carcinoma cells lysate proteins; type: binding, human; settings: PreyGene EIF3C, EIF3CL; SW480 cells
# [10] = target: SW480 colon carcinoma cells lysate proteins (Homo sapiens, UniProt P30153); type: binding; settings: PreyGene PPP2R1A
# Chain of SW480 colon carcinoma cells lysate proteins (Homo sapiens, UniProt P30153) (P30153 whole entry): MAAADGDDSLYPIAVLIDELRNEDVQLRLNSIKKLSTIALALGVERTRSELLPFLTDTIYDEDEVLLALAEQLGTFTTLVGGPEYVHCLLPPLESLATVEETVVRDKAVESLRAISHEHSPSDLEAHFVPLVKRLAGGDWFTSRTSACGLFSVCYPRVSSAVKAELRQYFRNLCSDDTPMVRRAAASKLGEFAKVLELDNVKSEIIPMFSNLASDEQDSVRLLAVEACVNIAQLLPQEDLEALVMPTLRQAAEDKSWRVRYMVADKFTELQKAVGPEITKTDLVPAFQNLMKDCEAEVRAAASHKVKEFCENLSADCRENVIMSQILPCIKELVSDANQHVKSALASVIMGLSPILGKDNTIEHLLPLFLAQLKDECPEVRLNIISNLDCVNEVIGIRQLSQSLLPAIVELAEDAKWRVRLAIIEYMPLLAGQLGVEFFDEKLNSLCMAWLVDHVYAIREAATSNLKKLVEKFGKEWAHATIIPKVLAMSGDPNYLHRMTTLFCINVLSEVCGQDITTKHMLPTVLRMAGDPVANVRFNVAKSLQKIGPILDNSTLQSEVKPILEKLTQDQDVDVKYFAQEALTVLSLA
# [11] = target: SW480 colon carcinoma cells lysate proteins (Homo sapiens, UniProt P99999); type: binding; settings: PreyGene CYCS
# Chain of SW480 colon carcinoma cells lysate proteins (Homo sapiens, UniProt P99999) (P99999 whole entry): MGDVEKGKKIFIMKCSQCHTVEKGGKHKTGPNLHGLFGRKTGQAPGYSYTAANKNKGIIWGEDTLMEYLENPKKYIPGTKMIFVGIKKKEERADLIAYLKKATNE
compound,measurement,setting,value
C[C@H](Oc1cc(-c2cnn(C3CCNCC3)c2)cnc1N)c1c(Cl)ccc(F)c1Cl [(5)-crizotinib],AvgP,[1],0.2244
same,SC.Exp. 1-1,[1],1
same,SC.Exp. 1-2,[1],2
same,SC.Exp. 2-1,[1],0
same,SC.Exp. 2-2,[1],0
same,Sum (SC.Exp.),[1],3
same,AvgP,[2],0.4547
same,SC.Exp. 1-1,[2],6
same,SC.Exp. 1-2,[2],7
same,SC.Exp. 2-1,[2],0
same,SC.Exp. 2-2,[2],0
same,Sum (SC.Exp.),[2],13
same,AvgP,[3],0.191
same,SC.Exp. 1-1,[3],0
same,SC.Exp. 1-2,[3],2
same,SC.Exp. 2-1,[3],0
same,SC.Exp. 2-2,[3],0
same,Sum (SC.Exp.),[3],2
same,AvgP,[4],0.4369
same,SC.Exp. 1-1,[4],3
same,SC.Exp. 1-2,[4],4
same,SC.Exp. 2-1,[4],0
same,SC.Exp. 2-2,[4],0
same,Sum (SC.Exp.),[4],7
same,AvgP,[5],0.1791
same,SC.Exp. 1-1,[5],0
same,SC.Exp. 1-2,[5],2
same,SC.Exp. 2-1,[5],0
same,SC.Exp. 2-2,[5],0
same,Sum (SC.Exp.),[5],2
same,AvgP,[6],0.33
same,SC.Exp. 1-1,[6],3
same,SC.Exp. 1-2,[6],3
same,SC.Exp. 2-1,[6],0
same,SC.Exp. 2-2,[6],0
same,Sum (SC.Exp.),[6],6
same,AvgP,[7],0
same,SC.Exp. 1-1,[7],0
same,SC.Exp. 1-2,[7],1
same,SC.Exp. 2-1,[7],0
same,SC.Exp. 2-2,[7],0
same,SC.Exp. Sum,[7],1
same,AvgP,[8],0
same,SC.Exp. 1-1,[8],2
same,SC.Exp. 1-2,[8],2
same,SC.Exp. 2-1,[8],2
same,SC.Exp. 2-2,[8],2
same,SC.Exp. Sum,[8],8
same,AvgP,[9],0
same,SC.Exp. 1-1,[9],4
same,SC.Exp. 1-2,[9],6
same,SC.Exp. 2-1,[9],7
same,SC.Exp. 2-2,[9],7
same,SC.Exp. Sum,[9],24
same,AvgP,[10],0.4042
same,SC.Exp. 1-1,[10],3
same,SC.Exp. 1-2,[10],3
same,SC.Exp. 2-1,[10],0
same,SC.Exp. 2-2,[10],0
same,Sum (SC.Exp.),[10],6
same,AvgP,[11],0.391
same,SC.Exp. 1-1,[11],2
same,SC.Exp. 1-2,[11],3
same,SC.Exp. 2-1,[11],0
same,SC.Exp. 2-2,[11],0
same,Sum (SC.Exp.),[11],5
